# Patent US10125100B2, “Kinase inhibitors” (Respivert Limited, priority 2014, dated 2018)
# Tests used:
# mitosis in PBMCs = experiment: (g) Cell mitosis assay; assay type: cell-based; settings: Homo sapiens, PBMC, 5 μg/mL
# Description: Peripheral blood mononucleocytes (PBMCs) from healthy subjects are separated from whole blood (Quintiles, London, UK) using a density gradient (Histopaque®-1077, Sigma-Aldrich, Poole, UK). The PBMCs (3 million cells per sample) are subsequently treated with 2% PHA (phytohaemagglutinin, Sigma-Aldrich, Poole, UK) for 48 hr, followed by a 20 hr exposure to varying concentrations of test compounds. At 2 hr before collection, PBMCs are treated with demecolcine (0.1 μg/mL; Invitrogen, Paisley, UK) to arrest cells in metaphase. To observe mitotic cells, PBMCs are permeabilized and fixed by adding Intraprep (50 μL; Beckman Coulter, France), and stained with anti-phospho-histone 3 ([…]; #9701; Cell Signalling, Danvers, Mass.) and propidium iodide (1 mg/mL; Sigma-Aldrich, Poole, UK) as previously described (Muehlbauer P. A. and Schuler M. J., Mutation Research, 2003, 537:117-130). Fluorescence is observed using an ATTUNE flow cytometer (Invitrogen, Paisley, UK), gating for lymphocytes.
# p38 MAPKα (MAPK14) = p38 MAPKα (MAPK14) (Homo sapiens (Human), UniProt Q16539); experiment: p38 MAPKα enzyme inhibition (Method 2), Z-LYTE FRET; assay type: biochemical
# Description: (§1) The enzyme inhibitory activities of compounds disclosed herein are determined by FRET using synthetic peptides labelled with both donor and acceptor fluorophores (Z-LYTE, Invitrogen Ltd., Paisley, UK).
# The following two assay variants can be used for determination of p38 MAPKα inhibition.
# The inhibitory activities of test compounds against the p38 MAPKα isoform (MAPK14: Invitrogen) are evaluated indirectly by determining the level of activation/phosphorylation of the down-stream molecule, MAPKAP-K2. The p38 MAPKα protein (80 ng/mL, 2.5 μL) is mixed with the test compound (2.5 μL of either 4 μg/mL, 0.4 μg/mL, 0.04 μg/mL or 0.004 μg/mL) for 2 hr at RT. […] The mixture is incubated for 1 hr at RT. Development reagent (protease, 5 μL) is added for 1 hr prior to detection in a fluorescence microplate reader (Varioskan® Flash, ThermoFisher Scientific).
# This method follows the same steps as Method 1 above, but utilises a higher concentration of the p38 MAPKα protein (2.5 μL of 200 ng/mL protein instead of 2.5 μL of 80 ng/mL protein) for mixing with the test compound (tested at either 1 μg/mL, 0.1 μg/mL, 0.01 μg/mL or 0.001 μg/mL).
# (§2) In all cases, the site-specific protease cleaves non-phosphorylated peptide only and eliminates the FRET signal. Phosphorylation levels of each reaction are calculated using the ratio of coumarin emission (donor) over fluorescein emission (acceptor), for which high ratios indicate high phosphorylation and low ratios indicate low phosphorylation levels.
# c-Src = c-Src (Homo sapiens (Human), UniProt P12931); experiment: c-Src enzyme inhibition, Z-LYTE FRET; assay type: biochemical
# Description: as §1
# (§3) The inhibitory activities of compounds of the invention against c-Src and Syk enzymes (Invitrogen), are evaluated in a similar fashion to that described hereinabove. The relevant enzyme (3000 ng/mL or 2000 ng/mL respectively, 2.5 μL) is incubated with the test compound (either 1 μg/mL, 0.1 μg/mL, 0.01 μg/mL, or 0.001 μg/mL, 2.5 μL each) for 2 hr at RT. The FRET peptides (8 μM, 2.5 μL), and appropriate ATP solutions (2.5 μL, 800 μM for c-Src, and 60 μM ATP for Syk) are then added to the enzymes/compound mixtures and the mixture incubated for 1 hr. Development reagent (protease, 5 μL) is added for 1 hr prior to detection in a fluorescence microplate reader (Varioskan® Flash, ThermoFisher Scientific).
# as §2
# Syk = Syk (Homo sapiens (Human), UniProt P43405); experiment: Syk enzyme inhibition, Z-LYTE FRET; assay type: biochemical
# Description: as §1
# as §3, with “The” for “The inhibitory activities of compounds of the invention against c-Src and Syk enzymes (Invitrogen), are evaluated in a similar fashion to that described hereinabove. The”
# as §2
# Jurkat cells = experiment: (r) Cell cytotoxicity assay; assay type: cell-based, human; settings: 24 hours
# Summary of the method: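 Jurkat cells (1×10^5/well, RPMI + 10% FBS) exposed to compound at 20, 5 or 1 μg/mL final (1.0% DMSO control) for 24 h at 37° C., 5% CO2. Then stained with 7.5 μg/mL propidium iodide for 15 min. % viability = PI-negative cells by flow cytometry, normalized to DMSO.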
# Chain of p38 MAPKα (MAPK14) (Q16539 whole entry): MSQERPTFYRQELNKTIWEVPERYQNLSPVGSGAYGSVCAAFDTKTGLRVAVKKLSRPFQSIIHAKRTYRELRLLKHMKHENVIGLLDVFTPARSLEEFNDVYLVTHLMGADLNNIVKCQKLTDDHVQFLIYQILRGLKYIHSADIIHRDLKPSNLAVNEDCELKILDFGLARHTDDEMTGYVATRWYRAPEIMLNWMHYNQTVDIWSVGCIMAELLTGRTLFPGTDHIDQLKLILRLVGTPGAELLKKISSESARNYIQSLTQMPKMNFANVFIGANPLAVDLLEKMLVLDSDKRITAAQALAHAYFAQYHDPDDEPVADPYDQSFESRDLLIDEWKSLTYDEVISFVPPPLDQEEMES
# Chain of c-Src (P12931 whole entry, looked up): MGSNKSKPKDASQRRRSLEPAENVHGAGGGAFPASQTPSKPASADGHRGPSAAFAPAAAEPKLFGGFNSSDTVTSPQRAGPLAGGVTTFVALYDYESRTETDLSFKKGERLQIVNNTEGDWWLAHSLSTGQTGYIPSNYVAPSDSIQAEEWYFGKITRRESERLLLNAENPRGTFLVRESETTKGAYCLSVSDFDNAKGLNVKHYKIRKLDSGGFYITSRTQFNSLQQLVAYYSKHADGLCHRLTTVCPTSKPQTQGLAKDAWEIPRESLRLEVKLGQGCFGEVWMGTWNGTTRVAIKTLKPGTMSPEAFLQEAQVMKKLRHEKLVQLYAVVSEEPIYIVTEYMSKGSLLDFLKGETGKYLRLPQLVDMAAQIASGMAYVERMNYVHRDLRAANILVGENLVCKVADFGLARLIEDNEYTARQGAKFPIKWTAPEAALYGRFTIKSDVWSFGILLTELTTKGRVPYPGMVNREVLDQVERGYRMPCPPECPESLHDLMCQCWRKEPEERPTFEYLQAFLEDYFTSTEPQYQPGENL
Compound,IC50 (p38 MAPKα (MAPK14)),IC50 (c-Src),IC50 (Syk),inhibition at 5 µg/mL (mitosis in PBMCs),% Viability at 1 μg/mL (Jurkat cells),% Viability at 5 μg/mL (Jurkat cells),% Viability at 20 μg/mL (Jurkat cells)
"COc1cc(Nc2cc(Oc3ccc(NC(=O)Nc4cc(C(C)(C)C)cc(NS(C)(=O)=O)c4OC)c4ccccc34)ccn2)ccc1C(=O)NCCN1CCC(F)(F)CC1 [17(al), 4-[[4-[[4-[[5-tert-butyl-3-(methanesulfonamido)-2-methoxy-phenyl]carbamoylamino]-1-naphthyl]oxy]-2-pyridyl]amino]-N-[2-(4,4-difluoro-1-piperidyl)ethyl]-2-methoxy-benzamide]",,,,21.2%,,,
"COc1cc(Nc2cc(Oc3ccc(NC(=O)Nc4cc(C(C)(C)C)cc(NS(C)(=O)=O)c4OC)c4ccccc34)ccn2)ccc1C(=O)NCCN(C)CCO [17(ac), 4-[[4-[[4-[[5-tert-butyl-3-(methanesulfonamido)-2-methoxy-phenyl]carbamoylamino]-1-naphthyl]oxy]-2-pyridyl]amino]-N-[2-[2-hydroxyethyl(methyl)amino]ethyl]-2-methoxy-benzamide]",,,,85.8%,,,
"COCCN(C)CCNC(=O)c1ccc(Nc2cc(Oc3ccc(NC(=O)Nc4cc(C(C)(C)C)cc(NS(C)(=O)=O)c4OC)c4ccccc34)ccn2)cc1OC [17(ad), 4-[[4-[[4-[[5-tert-butyl-3-(methanesulfonamido)-2-methoxy-phenyl]carbamoylamino]-1-naphthyl]oxy]-2-pyridyl]amino]-2-methoxy-N-[2-[2-methoxyethyl(methyl)amino]ethyl]-benzamide]",,,,93.4%,101.4%,6.3%,0.4%
"COc1c(NC(=O)Nc2ccc(Oc3ccnc(Nc4ccc(C(=O)NCCN5CCOCC5)cc4)c3)c3ccccc23)cc(C(C)(C)C)cc1NS(C)(=O)=O [17(u), 4-[[4-[[4-[[5-tert-butyl-3-(methanesulfonamido)-2-methoxy-phenyl]carbamoylamino]-1-naphthyl]oxy]-2-pyridyl]amino]-N-(2-morpholinoethyl)benzamide]",,,,86.9%,,,
"COc1cc(Nc2cc(Oc3ccc(NC(=O)Nc4cc(C(C)(C)C)cc(NS(C)(=O)=O)c4OC)c4ccccc34)ccn2)ccc1C(=O)NCCCCN1CCOCC1 [17(y), 4-[[4-[[4-[[5-tert-butyl-3-(methanesulfonamido)-2-methoxy-phenyl]carbamoylamino]-1-naphthyl]oxy]-2-pyridyl]amino]-2-methoxy-N-(4-morpholinobutyl)benzamide]",,,,70.8%,,,
"COc1cc(Nc2cc(Oc3ccc(NC(=O)Nc4cc(C(C)(C)C)cc(NS(C)(=O)=O)c4OC)c4ccccc34)ccn2)ccc1C(=O)NCCN1CCN(CCO)CC1 [17(z), 4-[[4-[[4-[[5-tert-butyl-3-(methanesulfonamido)-2-methoxy-phenyl]carbamoylamino]-1-naphthyl]oxy]-2-pyridyl]amino]-N-[2-[4-(2-hydroxyethyl)piperazin-1-yl]ethyl]-2-methoxy-benzamide]",,,,69.7%,102.9%,70.9%,2.0%

# Continued, in another order:
IC50 (p38 MAPKα (MAPK14)),IC50 (c-Src),IC50 (Syk),Compound,inhibition at 5 µg/mL (mitosis in PBMCs),% Viability at 1 μg/mL (Jurkat cells),% Viability at 5 μg/mL (Jurkat cells),% Viability at 20 μg/mL (Jurkat cells)
0.02 µM,0.02 µM,0.172 µM,"COc1cc(Nc2cc(Oc3ccc(NC(=O)Nc4cc(C(C)(C)C)cc(NS(C)(=O)=O)c4OC)c4ccccc34)ccn2)ccc1C(=O)NCCN1CCOCC1 [Example 2, 4-((4-((4-(3-(5-(tert-Butyl)-2-methoxy-3-(methylsulfonamido)phenyl)ureido)naphthalen-1-yl)oxy)pyridin-2-yl)amino)-2-methoxy-N-(2-morpholinoethyl)benzamide]",48%,,,
,0.012 µM,0.085 µM,"COc1cc(Nc2cc(Oc3ccc(NC(=O)Nc4cc(C(C)(C)C)cc(NS(C)(=O)=O)c4OC)c4ccccc34)ccn2)ccc1C(=O)NCC1CCN(C)CC1 [17(ak), 4-[[4-[[4-[[5-tert-butyl-3-(methanesulfonamido)-2-methoxy-phenyl]carbamoylamino]-1-naphthyl]oxy]-2-pyridyl]amino]-2-methoxy-N-[(1-methyl-4-piperidyl)methyl]benzamide]",74.7%,99.0%,69.5%,0.4%
0.029 µM,0.02 µM,0.055 µM,"COc1cc(Nc2cc(Oc3ccc(NC(=O)Nc4cc(C(C)(C)C)cc(N(CCO)S(C)(=O)=O)c4OC)c4ccccc34)ccn2)ccc1C(=O)NCCN1CC[S+]([O-])CC1 [Example 48, 4-((4-((4-(3-(5-(tert-Butyl)-3-(N-(2-hydroxyethyl)methylsulfonamido)-2-methoxyphenyl)-ureido)naphthalen-1-yl)oxy)pyridin-2-yl)amino)-2-methoxy-N-(2-(1-oxidothiomorpholino)-ethyl)benzamide]",,89.0%,63.8%,54.2%
,0.014 µM,0.086 µM,"COc1cc(Nc2cc(Oc3ccc(NC(=O)Nc4cc(C(C)(C)C)cc(NS(C)(=O)=O)c4OC)c4ccccc34)ccn2)ccc1C(=O)NCCN1CCCOCC1 [17(ai), 4-[[4-[[4-[[5-tert-butyl-3-(methanesulfonamido)-2-methoxy-phenyl]carbamoylamino]-1-naphthyl]oxy]-2-pyridyl]amino]-2-methoxy-N-[2-(1,4-oxazepan-4-yl)ethyl]benzamide]",89.1%,,,
0.031 µM,0.013 µM,0.325 µM,"COc1cc(Nc2cc(Oc3ccc(NC(=O)Nc4cc(C(C)(C)C)cc(NC(=O)CO)c4OC)c4ccccc34)ccn2)ccc1C(=O)NCCN1CC[S+]([O-])CC1 [Example 41, 4-((4-((4-(3-(5-(tert-Butyl)-3-(2-hydroxyacetamido)-2-methoxyphenyl)ureido)naphthalen-1-yl)oxy)pyridin-2-yl)amino)-2-methoxy-N-(2-(1-oxidothiomorpholino)ethyl)benzamide]",,90.5%,67.3%,55.3%
0.006 µM,0.017 µM,0.257 µM,"COc1cc(Nc2cc(Oc3ccc(NC(=O)Nc4cc(C(C)(C)C)cc(NS(C)(=O)=O)c4OC)c4ccccc34)ccn2)cc(OC)c1C(=O)NCCN(C)C [Example 39, 4-((4-((4-(3-(5-(tert-Butyl)-2-methoxy-3-(methylsulfonamido)phenyl)ureido)naphthalen-1-yl)oxy)pyridin-2-yl)amino)-N-(2-(dimethylamino)ethyl)-2,6-dimethoxybenzamide]",,93.9%,87.7%,1.5%
,0.012 µM,0.033 µM,"COc1cc(Nc2cc(Oc3ccc(NC(=O)Nc4cc(C(C)(C)C)cc(NS(C)(=O)=O)c4OC)c4ccccc34)ccn2)ccc1C(=O)NCCCN1CCCOCC1 [17(aj), 4-[[4-[[4-[[5-tert-butyl-3-(methanesulfonamido)-2-methoxy-phenyl]carbamoylamino]-1-naphthyl]oxy]-2-pyridyl]amino]-2-methoxy-N-[3-(1,4-oxazepan-4-yl)propyl]benzamide]",94.9%,,,
